Earlier results, collected in US11202786B2, “Synthetic bile acid compositions and methods” (ALLERGAN SALES, LLC, priority 2007, dated 2021).

How the values were obtained:
albumin = albumin (Homo sapiens, UniProt P02768); conditions: 0.4 mg/mL deoxycholate (comparable to the fasting state), in the presence of 26 mg/mL of albumin
[1] = neutral pH

Sequence of albumin (P02768 25-609): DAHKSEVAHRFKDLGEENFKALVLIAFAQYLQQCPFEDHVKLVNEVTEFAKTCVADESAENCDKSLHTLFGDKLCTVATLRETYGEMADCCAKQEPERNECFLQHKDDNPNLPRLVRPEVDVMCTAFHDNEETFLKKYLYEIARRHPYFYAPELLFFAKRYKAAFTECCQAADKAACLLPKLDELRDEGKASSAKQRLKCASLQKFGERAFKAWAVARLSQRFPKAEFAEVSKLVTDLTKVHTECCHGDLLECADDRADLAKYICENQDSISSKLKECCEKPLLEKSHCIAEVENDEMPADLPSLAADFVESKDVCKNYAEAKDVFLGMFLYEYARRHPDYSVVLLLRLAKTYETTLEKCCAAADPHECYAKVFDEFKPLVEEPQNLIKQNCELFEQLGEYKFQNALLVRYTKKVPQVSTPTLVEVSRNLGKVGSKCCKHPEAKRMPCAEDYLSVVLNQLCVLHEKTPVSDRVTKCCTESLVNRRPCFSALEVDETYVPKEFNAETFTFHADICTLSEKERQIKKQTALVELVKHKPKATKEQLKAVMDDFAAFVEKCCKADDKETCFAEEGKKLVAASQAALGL

## C[C@H](CCC(=O)[O-])[C@H]1CC[C@H]2[C@@H]3CC[C@@H]4C[C@H](O)CC[C@]4(C)[C@H]3C[C@H](O)[C@]12C.[Na+] [Deoxycholate, sodium deoxycholate]
albumin
  bound to albumin: 98%
[1]
  critical micelle concentration: approximately 2.4 mg/mL
acetone, compared with alcohol
  solubility in acetone: even less soluble
water
  soluble in water: 333 mg/mL
